Assay results taken from US9849131B2 (AUTIFONY THERAPEUTICS LIMITED, priority 2009, dated 2017).

What was measured:
[1] = Blood concentrations in satellite animals of the electroshock seizure study; assay type: in vivo, rat; design: unbound concentration in blood: unit not given here; conditions: for unbound concentration in blood: rat
Method: Testing involved determining the threshold for tonic hindlimb extensor seizures using a Hugo Sachs Electronik stimulator which delivers a constant current of 0.3 second duration, 50 Hz, sinewave form, fully adjustable between 1 and 300 mA. Stimuli were delivered via corneal electrodes (Stean T O, Atkins A R, Heidbreder C A, Quinn L P, Trail B K, Upton N. (2005) Br J Pharmacol. 144(5):628-35). Seizure threshold was determined using the ‘up and down’ method of Kimball et al. (1957)(Kimball A W, Burnett W T Jr, Doherty D G. (1957) Radiat Res. 7(1):1-12). The first animal tested in each group was stimulated with a current that might be expected to be close to the threshold for induction of a seizure. If a tonic seizure was not induced, then the next animal in the group received a stimulus 5 mA higher. If a tonic seizure was induced, then the next animal received a stimulus 5 mA lower. This is repeated for all animals within the control (vehicle) group. In the case of groups treated with a test compound steps of 5 to 10 mA were used. At the end of the study, blood samples were taken for analysis of the drug concentrations in this compartment (n=4/group).
Blood concentrations of Compound 19 measured in satellite animals 2 hours after dosing were 5.3 and 9.11 μg/mL following the doses of 30 and 60 mg/kg p.o., respectively.

Male CD-1 mice = assay: Psychostimulant (amphetamine)-induced hyperactivity in mice (Example 93); conditions: mouse; for Total Distance Travelled (cm): 60 minutes, mean ± sem
common marmosets = assay: Behaviour of the common marmoset on threatening human approach (Example 94); assay type: in vivo; conditions: for Number of Jumps / Number of postures: 2 minute test, mean ± sem
From the text: Central anxiolytic effects of a test compound can be assessed from the ability of the compound to reduce the characteristic defensive postures of marmosets in response to a threatening approach by a human. The test can also be used to assess the sedative or hypnotic effects of a test compound from its ability to reduce the number of jumps made by the animals. The study was based on the method described in Costall, B. et al (1988) Br. J. Pharmac. 95 p 475P. Laboratory-bred (GSK SpA, Italy) male and female common marmosets over 2 years of age, weighing 300-500 g were used in the study. The animals were caged in couples in a housing room maintained at 25±1° C., 60% humidity, and a 12 hour light/dark cycle (lights on at 0600, with 30 minutes simulated dawn and twilight). Both animals in each pair were involved in the test, which was carried out with the animals in their home cage.
The postures recorded in the test were those described by Costall et al supra; • Genital presenting (“Tail Posture”): the animal's back is turned to the observer with elevation of the tail to expose the genital region; • Scent-marking: the animal scent-marks the cage surfaces using circum-anal and circum-genital scent glands; • Slit-stare: the animal stares at the observer with flattened ear tufts and eyes reduced to “slits” • Arch-piloerection: the animal moves around the cage with arched back and full-body piloerection, failing to make eye contact with the observer
The number of jumps from the back of the cage to the cage front provided an index of locomotor activity, which could be used to assess the potential for a hypnotic effect, sedation, or locomotor stimulation produced by the test compound.

[2] = system: parvalbumin-positive interneurons in the somatosensory cortex; assay: Firing of parvalbumin-positive interneurons in somatosensory cortex slices, in vitro (Example 90); assay type: cell-based, mouse; conditions: vs TEA alone, p<0.05
[3] = system: high voltage-activated potassium currents in MNTB neurons (presumed to be mediated by Kv3.1 channels); assay: Potassium currents recorded from MNTB neurons, in vitro (Example 91); assay type: cell-based, mouse; conditions: 10 microM in the continuing presence of TEA (1 mM); voltage steps to +40 mV
Method: Male CBA/Ca mice (aged 12-16 days) were used in these experiments (in accordance with the UK Animals Scientific Procedures Act, 1986). Brain slices containing the medial nucleus of the trapezoid body (MNTB) were prepared as described previously (Brew and Forsythe, 2005).
Chemicals and reagents were purchased from Sigma, (Poole, UK) unless otherwise noted. EXAMPLE 19 was dissolved in DMSO and diluted in ACSF to the required concentration.
Recordings from identified MNTB neurons were conducted as previously described (Brew and Forsythe, 2005). Slices was placed in a superfusion chamber on an inverted microscope stage and continuously perfused with gassed (95% O2-5% CO2) ACSF at a rate of 1 ml min^−1 at room temperature. Whole-cell recordings were made from visually identified MNTB neurons using an […] amplifier (Molecular Devices, Union City, Calif., USA). Patch solution comprised (in mM) potassium gluconate (97.5), KCl (32.5), Hepes (40), EGTA (5), MgCl2 (1), Na2 phosphocreatin (5), pH 7.2 with KOH. Pipettes had resistances of 3-5 MΩ and series resistances were 6-10 MΩ (compensated by 70%, 10 μs lag). Access resistance was frequently monitored and the recording discarded if increases were more than 2 MΩ. […]

[4] = 0.3 mg/kg p.o. 2 hours before test
[5] = 1 mg/kg p.o. 2 hours before test
[6] = 3 mg/kg p.o. 2 hours before test

Compound: CC[C@H]1NC(=O)N(c2ccc(Oc3ccc(C)c(OC)c3)nc2)C1=O [Example 19, (5R)-5-ethyl-3-(6-{[4-methyl-3-(methyloxy)phenyl]oxy}-3-pyridinyl)-2,4-imidazolidinedione]
- concentration at 2 h ([1]; CD, whole blood, oral, rat satellite animals, 2 hours after 60 mg/kg p.o.): 9110 ng/mL
- unbound concentration in blood ([1]; 2 hours after 30 mg/kg p.o.): 1.3
- unbound concentration in blood ([1]; 2 hours after 60 mg/kg p.o.): 2.21
- effect on the increase in total distance travelled produced by amphetamine (Male CD-1 mice; 30 mg/kg p.o.): significantly reduced
- effect on the increase in locomotor activity induced by amphetamine (Male CD-1 mice; 60 mg/kg p.o., similar to clozapine 3 mg/kg i.p.): further reduced
- Total Distance Travelled (cm) (Male CD-1 mice; AMPH 2 mg/kg i.p. + compound 30 mg/kg p.o. 30 minutes before): 5790 ± 1436 cm
- Total Distance Travelled (cm) (Male CD-1 mice; AMPH 2 mg/kg i.p. + compound 60 mg/kg p.o. 30 minutes before): 1494 ± 378 cm
- Number of Jumps (common marmosets; [4]): 21.3 ± 2.7
- Number of postures (common marmosets; [4]): 12.2 ± 1.03
- effect on the number of jumps (common marmosets; 1 mg/kg p.o.): significantly reduced
- Number of Jumps (common marmosets; [5]): 15.3 ± 2.5
- Number of postures (common marmosets; [5]): 10.0 ± 1.2
- effect on the number of jumps (common marmosets; 3 mg/kg p.o.): significantly reduced
- Number of Jumps (common marmosets; [6]): 11.5 ± 1.9
- Number of postures (common marmosets; [6]): 9.7 ± 1.1
- effects on postures (common marmosets; any dose (0.3, 1, 3 mg/kg p.o.)): without any effects
- reversal of TEA-induced lowering of maximal firing frequency ([2]; TEA (0.5 mM) plus compound at 10 μM): significantly reversed
- reversal of TEA-induced lowering of maximal firing frequency ([2]; TEA (0.5 mM) plus compound): significantly reversed
- reversal of TEA-induced reduction of high voltage-activated potassium current amplitude [3]: reversed
